Marks after values point to notes of the source that are not given here.
Columns and labels:
human hepatocytes = test: Stability in the presence of human hepatocytes; format: in vitro ADME; conditions: human hepatocytes, 5 μM, 37° C., average of duplicates; ^a = 0-120 minute time points
Protocol: (§1) Compounds of the invention were tested for stability in the presence of dog, rat and human hepatocytes over a 4 hour period by LC/MS/MS. The study was performed by Integrated Analytical Solutions, Berkeley, Calif.
(§2) Reference Standards and Solutions: Compounds of the invention were stored as powders at ambient temperature in a desiccator and protected from light. Reference stock solutions of Compound Nos. 50a, 50b, 79a, 82, 91a and 178d, as 20 mM in DMSO were prepared and subsequently diluted to 2 mM in MeOH to provide working stock solutions (WSS). Unused standard solutions were stored at −20° C.
(§3) Hepatocyte Preparation: Human (mixed gender), Beagle dog (male) and Sprague Dawley rat (male) cryopreserved hepatocytes were purchased from Life Technologies Corporation. Hepatocytes were removed from liquid nitrogen, quickly thawed in a 37° C. water bath and transferred to Hepatocyte Thawing/Plating Medium (Cryopreserved Hepatocyte Recovery Medium, CHRM, Life Technologies Inc.). The cells were pelleted by slow speed centrifugation (˜100×g, 6 min) and resuspended at a high cell density. Hepatocyte viability was determined by trypan blue exclusion. Hepatocyte incubation medium (Life Technologies, Inc.) was added to generate a cell density of 2.0×10^6 cells/mL.
(§4) Hepatocyte Incubations for Stability: The 2 mM WSS was diluted 1 in 200 in hepatocyte incubation medium (pH 7.4) to 10 μM. A solution containing control compounds was prepared similarly to contain 10 μM each of dextromethorphan and testosterone. The solutions of test compounds and controls at 10 μM in hepatocyte incubation medium were pre-incubated at 37° C. for 10 min. Aliquots (250 μL) of hepatocyte suspensions (at 2.0×10^6 cells/mL) were transferred to appropriate 48-well plates and pre-incubated at 37° C. for 10 minutes. Metabolism was initiated by adding 250 μL pre-incubated medium (containing test drug) to wells containing cells. A negative control reaction excluding hepatocytes was used to monitor aqueous stability and/or non-specific adsorption. The final reaction mixtures contained 5 μM of test or control compound and 1.0×10^6 cells/mL. All reactions were performed in duplicate and carried at 37° C. in an incubator. Dextromethorphan and testosterone were used as control drugs to verify hepatocyte activity.
(§5) Aliquots were removed from each metabolism reaction at 0, 0.5, 2 and 4 hours. The reactions were terminated by adding each aliquot to a vessel containing 2× volumes (80 μL) of Internal Standard Solution (acetonitrile containing 50 ng/mL 2-(2,8-dimethyl-3,4-dihydro-1H-pyrido[4,3-b]indol-5(2H)-yl)-1-(pyridin-4-yl)ethanol (ISS1), 50 ng/mL of 2-(2,8-dimethyl-3,4-dihydro-1H-pyrido[4,3-b]indol-5(2H)-yl)-1-(piperidin-1-yl)ethanone (ISS2) and 5 ng/mL diphenhydramine. Terminated reactions were centrifuged at 6000 g for 30 mins at 4° C. to remove the precipitated proteins and cell debris. Following centrifugation, 20 μL of each supernatant was transferred to a deep-well microplate and diluted with 5× volumes (100 μL) of 0.2% formic acid in water. Compound 178d samples were diluted with 5× volumes (100 μL) of 0.1% HFBA in water. Samples were analyzed by LC/MS/MS.
(§6) Calculation of Metabolism Parameters: Percent remaining was measured by dividing the analyte/IS peak area ratio at the designated sample time by the peak area ratio at time 0. ISS1 served as the IS for Compound No. 178d. ISS2 served as the IS for Compound nos. 50a, 50b, 79a, 82 and 91a. The metabolic half-life (T1/2) was calculated using all time points unless otherwise noted. The T1/2 values were calculated as 0.693/k, where k is the slope of the log analyte/internal standard peak area ratio versus time. Metabolism rate was calculated by dividing the starting concentration of substrate by the concentration of hepatocytes, then dividing by the T1/2 value.

dog hepatocytes = test: Stability in the presence of dog hepatocytes; format: in vitro ADME, Beagle dog; conditions: dog hepatocytes, 5 μM, 37° C., average of duplicates; ^a = 0-120 minute time points
Protocol: as §1, §2, §3, §4, §5, §6

rat hepatocytes = test: Stability in the presence of rat hepatocytes; format: in vitro ADME, Sprague Dawley rat; conditions: rat hepatocytes, 5 μM, 37° C., average of duplicates; ^a = 0-120 minute time points
Protocol: as §1, §2, §3, §4, §5, §6

T1/2 Human (human hepatocytes): 82^a min
T1/2 Dog (dog hepatocytes): 100^a min
T1/2 Rat (rat hepatocytes): >4 h
Structure (SMILES): Cc1cc2c3c(n(CC(C)(O)c4ccncc4)c2cc1Cl)CCN1CCCC31 (single isomer, unassigned) [50b]
